System: K24384-001-R-PDC complex spheroid growth
Experiment: Anticancer human tumor K24384-001-R-PDC patient-derived pancreatic adenocarcinoma cell line growth inhibition [AhR]
Settings: for IC50: curve of first compound; for viability, T/C: stronger effect = lower value
How it was run: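 Agents were dosed in half-log steps down from roughly clinical Cmax, or from 10 microM where Cmax was unknown, alone and with AhR antagonists. Read-out: percent test/control growth of tumor spheroids containing HUVEC and MSC stromal cells.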

[1] = second compound 0.1 µM, first compound 0.000949 µM
[2] = second compound 0.1 µM, first compound 0.003 µM
[3] = second compound 0.1 µM, first compound 0.00949 µM
[4] = second compound 0.1 µM, first compound 0.03 µM
[5] = second compound 0.1 µM, first compound 0.0949 µM
[6] = second compound 0.1 µM, first compound 0.3 µM
[7] = second compound 0.316 µM, first compound 0.000949 µM
[8] = second compound 0.316 µM, first compound 0.003 µM
[9] = second compound 0.316 µM, first compound 0.00949 µM
[10] = second compound 0.316 µM, first compound 0.03 µM
[11] = second compound 0.316 µM, first compound 0.0949 µM
[12] = second compound 0.316 µM, first compound 0.3 µM
[13] = second compound 1 µM, first compound 0.000949 µM
[14] = second compound 1 µM, first compound 0.003 µM
[15] = second compound 1 µM, first compound 0.00949 µM
[16] = second compound 1 µM, first compound 0.03 µM
[17] = second compound 1 µM, first compound 0.0949 µM
[18] = second compound 1 µM, first compound 0.3 µM
[19] = second compound 3.16 µM, first compound 0.000949 µM
[20] = second compound 3.16 µM, first compound 0.003 µM
[21] = second compound 3.16 µM, first compound 0.00949 µM
[22] = second compound 3.16 µM, first compound 0.03 µM
[23] = second compound 3.16 µM, first compound 0.0949 µM
[24] = second compound 3.16 µM, first compound 0.3 µM
[25] = second compound 10 µM, first compound 0.000949 µM
[26] = second compound 10 µM, first compound 0.003 µM
[27] = second compound 10 µM, first compound 0.00949 µM
[28] = second compound 10 µM, first compound 0.03 µM
[29] = second compound 10 µM, first compound 0.0949 µM
[30] = second compound 10 µM, first compound 0.3 µM
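For viability, T/C in this document: percent of DMSO vehicle-treated spheroid viability set as 100%.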

`CC(C)CC(NC(=O)C(Cc1ccccc1)NC(=O)c1cnccn1)B(O)O` (stereo not given) + Cc1cncc(-c2nc(NCCc3c[nH]c4ccccc34)c3ncn(C(C)C)c3n2)c1 showed an IC50 (second compound 0.1 µM) of 7.54 nM, an IC50 (second compound 0.316 µM) of 11.2 nM and an IC50 (second compound 1 µM) of 10.7 nM. The IC50 (second compound 3.16 µM) was 7.07 nM, the IC50 (second compound 10 µM) was under 0.949 nM and the viability, T/C [1] was 112%. It also gave a viability, T/C [2] of 83.3%, a viability, T/C [3] of 46.1% and a viability, T/C [4] of 1.55%. It also gave a viability, T/C [5] of 0.43%, a viability, T/C [6] of 0.56% and a viability, T/C [7] of 107%. For the same compound, the viability, T/C [8] was 95%, the viability, T/C [9] was 58.9% and the viability, T/C [10] was 1.17%. The viability, T/C [11] was 0.65%, the viability, T/C [12] was 0.45% and the viability, T/C [13] was 116%. It also gave a viability, T/C [14] of 106%, a viability, T/C [15] of 56.6% and a viability, T/C [16] of 0.7%. The viability, T/C [17] was 0.26%, the viability, T/C [18] was 0.31% and the viability, T/C [19] was 83.9%. It also gave a viability, T/C [20] of 97%, a viability, T/C [21] of 36.1% and a viability, T/C [22] of 0.65%. For the same compound, the viability, T/C [23] was 2.21%, the viability, T/C [24] was 0.22% and the viability, T/C [25] was 21.9%. The viability, T/C [26] was 24.2%, the viability, T/C [27] was 12.7% and the viability, T/C [28] was 0.35%. For the same compound, the viability, T/C [29] was 1.63% and the viability, T/C [30] was 1.52%.

Compound `CCc1c2c(nc3ccc(O)cc13)-c1cc3c(c(=O)n1C2)COC(=O)[C@]3(O)CC` + Cc1cncc(-c2nc(NCCc3c[nH]c4ccccc34)c3ncn(C(C)C)c3n2)c1 has an IC50 (second compound 0.1 µM) of 2.95 nM, an IC50 (second compound 0.316 µM) of 3.6 nM and an IC50 (second compound 1 µM) of 5.67 nM. For the same compound, the IC50 (second compound 3.16 µM) was 6.01 nM, the IC50 (second compound 10 µM) was under 0.949 nM and the viability, T/C [1] was 67.3%. The viability, T/C [2] was 48.4%, the viability, T/C [3] was 33.4% and the viability, T/C [4] was 34.9%. The viability, T/C [5] was 28%, the viability, T/C [6] was 16.8% and the viability, T/C [7] was 68.9%. It also gave a viability, T/C [8] of 47.1%, a viability, T/C [9] of 37.6% and a viability, T/C [10] of 35.9%. The viability, T/C [11] was 23.9%, the viability, T/C [12] was 14% and the viability, T/C [13] was 76.9%. It also gave a viability, T/C [14] of 59.1%, a viability, T/C [15] of 41.5% and a viability, T/C [16] of 32%. The viability, T/C [17] was 26.4%, the viability, T/C [18] was 16.8% and the viability, T/C [19] was 60%. It also gave a viability, T/C [20] of 52.6%, a viability, T/C [21] of 49.2% and a viability, T/C [22] of 29.8%. It also gave a viability, T/C [23] of 21.7%, a viability, T/C [24] of 13.9% and a viability, T/C [25] of 5.03%. For the same compound, the viability, T/C [26] was 5.63%, the viability, T/C [27] was 6.51% and the viability, T/C [28] was 3.31%. For the same compound, the viability, T/C [29] was 4.86% and the viability, T/C [30] was 3.7%.

`COc1cc(Nc2ncc3c(n2)-c2ccc(Cl)cc2C(c2c(F)cccc2OC)=NC3)ccc1C(=O)O` + Cc1cncc(-c2nc(NCCc3c[nH]c4ccccc34)c3ncn(C(C)C)c3n2)c1 was tested, and the IC50 (second compound 0.1 µM) was 943 nM, the IC50 (second compound 0.316 µM) was 2150 nM and the IC50 (second compound 1 µM) was over 10000 nM. The IC50 (second compound 3.16 µM) was 10000 nM, the IC50 (second compound 10 µM) was under 31.6 nM and the viability, T/C (second compound 0.1 µM, first compound 0.0316 µM) was 81.9%. For the same compound, the viability, T/C (second compound 0.1 µM, first compound 0.1 µM) was 70.1%, the viability, T/C (second compound 0.1 µM, first compound 0.316 µM) was 69.6% and the viability, T/C (second compound 0.1 µM, first compound 1 µM) was 43.9%. For the same compound, the viability, T/C (second compound 0.1 µM, first compound 3.16 µM) was 53.1%, the viability, T/C (second compound 0.1 µM, first compound 10 µM) was 49.9% and the viability, T/C (second compound 0.316 µM, first compound 0.0316 µM) was 95%. For the same compound, the viability, T/C (second compound 0.316 µM, first compound 0.1 µM) was 66.4%, the viability, T/C (second compound 0.316 µM, first compound 0.316 µM) was 68% and the viability, T/C (second compound 0.316 µM, first compound 1 µM) was 41.1%. The viability, T/C (second compound 0.316 µM, first compound 3.16 µM) was 53.4%, the viability, T/C (second compound 0.316 µM, first compound 10 µM) was 47.7% and the viability, T/C (second compound 1 µM, first compound 0.0316 µM) was 85.3%. The viability, T/C (second compound 1 µM, first compound 0.1 µM) was 82.7%, the viability, T/C (second compound 1 µM, first compound 0.316 µM) was 75.2% and the viability, T/C (second compound 1 µM, first compound 1 µM) was 63%. It also gave a viability, T/C (second compound 1 µM, first compound 3.16 µM) of 50.3%, a viability, T/C (second compound 1 µM, first compound 10 µM) of 51.5% and a viability, T/C (second compound 3.16 µM, first compound 0.0316 µM) of 80.5%. The viability, T/C (second compound 3.16 µM, first compound 0.1 µM) was 77.2%, the viability, T/C (second compound 3.16 µM, first compound 0.316 µM) was 72.8% and the viability, T/C (second compound 3.16 µM, first compound 1 µM) was 44.8%. The viability, T/C (second compound 3.16 µM, first compound 3.16 µM) was 58.6%, the viability, T/C (second compound 3.16 µM, first compound 10 µM) was 62.1% and the viability, T/C (second compound 10 µM, first compound 0.0316 µM) was 11.1%. For the same compound, the viability, T/C (second compound 10 µM, first compound 0.1 µM) was 11.8%, the viability, T/C (second compound 10 µM, first compound 0.316 µM) was 10.3% and the viability, T/C (second compound 10 µM, first compound 1 µM) was 9.55%. For the same compound, the viability, T/C (second compound 10 µM, first compound 3.16 µM) was 9.44% and the viability, T/C (second compound 10 µM, first compound 10 µM) was 17%.
